Earlier results as cited in US20050226974A1 (priority 2004, published 2005).

Key:
[1] = tested on: common food spoilage yeasts and moulds; conditions: most strains of common food spoilage yeasts and moulds
[2] = tested on: yeasts; conditions: some yeasts

C[C@@H]1C/C=C/C=C/C=C/C=C/[C@H](O[C@@H]2O[C@H](C)[C@@H](O)[C@H](N)[C@@H]2O)C[C@@H]2O[C@](O)(C[C@@H](O)C[C@H]3O[C@@H]3/C=C/C(=O)O1)C[C@H](O)[C@H]2C(=O)O [Natamycin]
concentrations inhibiting most strains [1]: 1-15 ppm | minimal inhibitory concentrations [2]: less than 3 ppm | solubility dependence on pH: most soluble at high or low pH | maximum solubility (in water): around 40 ppm
